This note sets out measurements from US4324786A, “Pyrido[2,3-e]-as-triazine derivatives and pharmaceutical compositions” (Egyt Gyogyszervegyeszeti Gyar, priority 1979, dated 1982).

Series [1] relates to mice. In words: analgesic effect on mice, method of Newbould. Type of series: in vivo. The note with it: oral; for ED50: Mus musculus. How it is done:
The analgesic effects of the new compounds were tested on mice after oral administration, as described by Newbould [Brit.

The subject of series [2] is mice. Nature of the series: narcosis potentiating effect on mice, method of Kaergaard. The settings on record: for ED50: Mus musculus, po; for Therapeutical index: narcosis potentiating effect, mice, oral.
Description: The narcosis potentiating effects was tested on mice according to the method of Kaergaard [Arch. […] The compounds under examination were administered orally to the animals.
Series [3] deals with rats. In words: antiphlogistic effect on rats, method of Winter. The note with it: oral; for ED50: Rattus norvegicus. Type of series: in vivo. On the procedure: The antiphlogistic effects of the new compounds were determined on rats by the method of Winter [Proc. Soc. Exp. Biol. Med. 111, 544 (1962)]. The compounds were administered orally to the animals.
The nature of series [4]: in vivo. The note with it: mouse, mice, oral. On the procedure:
The toxicity was determined on mice after oral adminstration.

In series [5] the test system is mice. Nature of the series: motility inhibiting effect on mice, method of Borsy et al. The class given is in vivo. The settings on record: for ED50: Mus musculus. How it is done:
The motility inhibiting effects of the new compounds were tested on mice by the method of Borsy et al. [Int. Pharmacodyn. […] The compounds to be tested were administered orally to the animals.

Series [6] concerns mice. Nature of the series: tetrabenazine antagonizing effect (inhibition of ptosis provoked by tetrabenazine) on mice, method of Brodie. Type of series: in vivo. The settings on record: oral.
The subject of series [7] is mice. In words: animal or person. Type of series: in vivo. The note with it: potentiation of the toxicity of yohimbine, oral; for ED50: Mus musculus. How it is done:
The ability of the compounds in potentiating the toxicity of yohimbine was tested on mice by the method of Quinton [Brit. J. Pharmacol. 21, 51 (1963)]. The compounds were administered orally to the animals.

Setting [8] is: motility inhibiting effect, mice, oral.

Broadly, the ED50 is the midpoint of the dose-response relation. `CC(=O)Nc1ccc(O)cc1` [Paracetamol, reference compound]: the ED50 in series [1] was found to be 180 mg/kg.

In general, LD50 refers to the dose at which mortality reaches 50%. Higher therefore signals a less toxic substance. Turning to `CCC(=O)N1NC(N(C(C)C)C(C)C)=Nc2ncccc21` [Example 2, 3-diisopropylamino-1-propionyl-1,2-dihydro-pyrido[2,3-e]-as-triazine], the 50% effective dose (ED50) was 40 mg/kg in series [2]; 450 mg/kg in series [3]; 250 mg/kg in series [5] (motility inhibiting effect, mice, oral, read-out: ED50); 150 mg/kg in series [6] (Mus musculus); 350 mg/kg in series [1]; 140 mg/kg in series [7]. Besides, the Therapeutical index in series [2] is 50; in series [3], 4.4; in series [5] (setting [8]) it was 8; in series [6], 13.3; in series [1] it was 5.7; in series [7], 14.3. In series [4], this molecule gave a 50% lethal dose (LD50) of 2000 mg/kg.

For `CCC(=O)N1C(N2CCOCC2)=Nc2ncccc2N1C(=O)CC` [Example 1, 3-morpholino-1,2-dipropionyl-1,2-dihydro-pyrido[2,3-e]-as-triazine], the ED50 in series [2] was 54 mg/kg; in series [3] it was 300 mg/kg; in series [1], 300 mg/kg; in series [7], 320 mg/kg. For the same molecule, the Therapeutical index in series [2] is 29.6; in series [3], 5.3; in series [5] (setting [8]), 5; in series [6], 5; in series [1], 5.3; in series [7] it was 5. Moreover, in series [4], the median lethal dose (LD50) amounted to 1600 mg/kg.

As for `CCCC(C)(COC(N)=O)COC(N)=O` [Meprobamate, reference compound], the median effective dose (ED50) in series [2] is 250 mg/kg; in series [5] (po), 270 mg/kg. Moreover, the Therapeutical index in series [2] stood at 4.2; in series [5] (setting [8]) it was 4.1.
